Measured values as given in ChEMBL document CHEMBL1136587, “Optimisation of aryl substitution leading to potent methionyl tRNA synthetase inhibitors with excellent gram-positive antibacterial activity” (Bioorg Med Chem Lett, 2003).
In brackets after ≈: the same amount, converted by molar mass.

Key:
[1] = test system: Enterococcus faecalis; experiment: In vitro Antibacterial activity of compound against Enterococcus faecalis 1; type: functional
[2] = test system: Staphylococcus aureus; experiment: In vitro Antibacterial activity of compound against Staphylococcus aureus Oxford; type: functional
[3] = test system: Enterococcus faecium; experiment: In vitro Antibacterial activity of compound against Enterococcus faecium
[4] = test system: Staphylococcus epidermidis; experiment: In vitro Antibacterial activity of compound against Staphylococcus epidermidis
[5] = test system: Staphylococcus aureus; experiment: In vitro Antibacterial activity of compound against Staphylococcus aureus
[6] = molecular target: Methionine--tRNA ligase (Enterococcus faecalis (strain ATCC 700802 / V583)) (UniProt Q837B3); experiment: In vitro Antibacterial activity of compound against Enterococcus faecalis; type: functional
[7] = molecular target: Methionine--tRNA ligase (Enterococcus faecalis (strain ATCC 700802 / V583)) (UniProt Q837B3); experiment: In vitro Antibacterial activity of compound against Enterococcus faecalis 7; type: functional

Methionine--tRNA ligase (Enterococcus faecalis (strain ATCC 700802 / V583)), sequence (Q837B3 whole entry): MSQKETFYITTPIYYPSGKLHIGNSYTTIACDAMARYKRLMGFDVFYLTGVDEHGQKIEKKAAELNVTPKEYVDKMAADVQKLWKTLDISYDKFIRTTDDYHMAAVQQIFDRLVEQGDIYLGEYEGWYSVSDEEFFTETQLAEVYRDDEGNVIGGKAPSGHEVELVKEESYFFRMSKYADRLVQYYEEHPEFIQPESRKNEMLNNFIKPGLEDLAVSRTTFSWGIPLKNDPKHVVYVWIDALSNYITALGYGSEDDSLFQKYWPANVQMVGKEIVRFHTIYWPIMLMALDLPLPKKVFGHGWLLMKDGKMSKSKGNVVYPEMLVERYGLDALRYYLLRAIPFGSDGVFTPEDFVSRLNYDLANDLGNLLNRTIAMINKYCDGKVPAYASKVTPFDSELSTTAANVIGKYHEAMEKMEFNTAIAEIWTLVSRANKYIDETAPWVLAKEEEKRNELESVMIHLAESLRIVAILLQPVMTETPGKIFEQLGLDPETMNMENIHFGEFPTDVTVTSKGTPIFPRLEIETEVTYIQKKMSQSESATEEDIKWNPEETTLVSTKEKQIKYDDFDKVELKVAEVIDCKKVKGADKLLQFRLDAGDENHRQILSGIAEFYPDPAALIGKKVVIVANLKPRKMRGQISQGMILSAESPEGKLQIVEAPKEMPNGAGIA

SMILES | MIC [1] [µg/mL] | MIC [2] [µg/mL] | also measured
CCc1cc(Br)cc2c1NCCC2NCCCNc1cc(O)c2ccccc2n1 (stereo not given) | < 0.06 | 0.25 (≈ 0.549 µM) | –
Oc1cc(NCCCNCc2cc(Br)cc(Br)c2OCC(F)(F)F)nc2ccccc12 | < 0.06 | 0.25 (≈ 0.444 µM) | –
CCOC(=O)c1cc(I)c(OCC)c(CNCCCNc2cc(O)c3ccccc3n2)c1 | 8 (≈ 14.6 µM) | 32 (≈ 58.2 µM) | –
CCOc1c(Br)cc(C)cc1CNCCCNc1cc(O)c2ccccc2n1 | 0.25 (≈ 0.563 µM) | 2 (≈ 4.5 µM) | –
CCOc1c(C)cc(C(F)(F)F)cc1CNCCCNc1cc(=O)c2ccccc2[nH]1 | 0.25 (≈ 0.577 µM) | 0.5 (≈ 1.15 µM) | –
CCOc1c(C)cc(I)cc1CNCCCNc1cc(O)c2ccccc2n1 | < 0.06 | < 0.06 | –
Oc1cc(NCCCNC2CCCc3c(Cl)cc(Cl)cc32)nc2ccccc12 (stereo not given) | < 0.06 | 0.25 (≈ 0.6 µM) | –
CCOc1c(I)cc(COC)cc1CNCCCNc1cc(O)c2ccccc2n1 | 2 (≈ 3.84 µM) | 8 (≈ 15.3 µM) | –
Oc1cc(NCCCNC2CCNc3c(Cl)cc(Cl)cc32)nc2ccccc12 (stereo not given) | < 0.06 | 0.13 (≈ 0.311 µM) | –
Oc1cc(NCCCNCc2cc(I)cc(I)c2)nc2ccccc12 | < 0.06 | < 0.06 | –
Oc1cc(NCCCNC2COc3c(Cl)cc(Cl)cc32)nc2ccccc12 (stereo not given) | 0.125 (≈ 0.309 µM) | 2 (≈ 4.95 µM) | –
CCc1cc(I)c2c(c1)C(NCCCNc1cc(=O)c3ccccc3[nH]1)CCN2 (stereo not given) | < 0.06 | 0.25 (≈ 0.498 µM) | MIC90 [3]: 0.06 µg/mL (≈ 0.119 µM); MIC90 [4]: 1 µg/mL (≈ 1.99 µM); MIC90 [5]: 1 µg/mL (≈ 1.99 µM); MIC90 [6]: 0.25 µg/mL (≈ 0.498 µM)
CCOc1cc(Br)c(OCC)c(CNCCCNc2cc(O)c3ccccc3n2)c1 | 4 (≈ 8.43 µM) | 8 (≈ 16.9 µM) | –
CCOc1c(C)cc(SC)cc1CNCCCNc1cc(O)c2ccccc2n1 | < 0.06 | < 0.06 | –
O=c1cc(NCCCNC2CCOc3c(Cl)cc(Cl)cc32)[nH]c2ccccc12 (stereo not given) | < 0.06 | 0.13 (≈ 0.311 µM) | –
CCOc1c(CNCCCNc2cc(O)c3ccccc3n2)cc(I)cc1COC | 8 (≈ 15.3 µM) | 16 (≈ 30.7 µM) | –
Oc1cc(NCCCNCc2cc(Cl)cc(Cl)c2)nc2ccccc12 | 0.13 (≈ 0.345 µM) | 1 (≈ 2.66 µM) | –
CCOc1c(Br)cc(SC)cc1CNCCCNc1cc(O)c2ccccc2n1 | < 0.06 | < 0.06 | MIC90 [3]: 0.5 µg/mL (≈ 1.05 µM); MIC90 [4]: 0.25 µg/mL (≈ 0.525 µM); MIC90 [5]: 0.25 µg/mL (≈ 0.525 µM); MIC90 [6]: 0.5 µg/mL (≈ 1.05 µM)
CCOc1c(Br)cc(OC)cc1CNCCCNc1cc(O)c2ccccc2n1 | < 0.06 | 0.13 (≈ 0.282 µM) | MIC90 [3]: 0.03 µg/mL (≈ 0.0652 µM); MIC90 [4]: 2 µg/mL (≈ 4.34 µM); MIC90 [5]: 2 µg/mL (≈ 4.34 µM); MIC90 [6]: 0.06 µg/mL (≈ 0.13 µM)
Oc1cc(NCCCNCc2ccccc2)nc2ccccc12 | > 64 | > 64 | –
CCOc1c(CNCCCNc2cc(O)c3ccccc3n2)cc(Br)cc1OC | 2 (≈ 4.34 µM) | 4 (≈ 8.69 µM) | –
Oc1cc(NCCCNCc2cc(Cl)ccc2Cl)nc2ccccc12 | 16 (≈ 42.5 µM) | 4 (≈ 10.6 µM) | –
CCNc1c(Br)cc(Br)cc1CNCCCNc1cc(O)c2ccccc2n1 | < 0.06 | 1 (≈ 1.97 µM) | –

SMILES | MIC [1] [µg/mL] | MIC [2] [µg/mL] | also measured
C=CCOc1c(Cl)cc(Cl)cc1CNCCCNc1cc(O)c2ccccc2n1 | < 0.06 | 0.5 (≈ 1.16 µM) | –
CCOc1c(C#N)cc(Br)cc1CNCCCNc1cc(O)c2ccccc2n1 | 0.25 (≈ 0.549 µM) | 0.5 (≈ 1.1 µM) | –
CCOc1c(Br)cc(C#N)cc1CNCCCNc1cc(O)c2ccccc2n1 | 1 (≈ 2.2 µM) | 4 (≈ 8.78 µM) | –
Oc1cc(NCCCNCc2cc(Br)cc(I)c2)nc2ccccc12 | < 0.06 | < 0.06 | –
Oc1cc(NCCCNCc2ccc(Cl)cc2Cl)nc2ccccc12 | – | 4 (≈ 10.6 µM) | MIC [7]: 4 µg/mL (≈ 10.6 µM)
Cc1cc(Br)c2c(c1)C(NCCCNc1cc(O)c3ccccc3n1)CCN2 (stereo not given) | 0.25 (≈ 0.566 µM) | 1 (≈ 2.27 µM) | –
Oc1cc(NCCCNC2CCNc3c(Br)cc(Br)cc32)nc2ccccc12 (stereo not given) | < 0.06 | < 0.06 | MIC90 [3]: < 0.016 µg/mL; MIC90 [4]: 0.5 µg/mL (≈ 0.988 µM); MIC90 [5]: 0.5 µg/mL (≈ 0.988 µM); MIC90 [6]: 0.03 µg/mL (≈ 0.0593 µM)
CCOc1c(C)cc(Cl)cc1CNCCCNc1cc(O)c2ccccc2n1 | < 0.06 | 0.25 (≈ 0.625 µM) | –
Cc1cc(Br)cc2c1NCCC2NCCCNc1cc(O)c2ccccc2n1 (stereo not given) | < 0.06 | 0.5 (≈ 1.13 µM) | –
Oc1cc(NCCCSCc2ccc(Cl)c(Cl)c2)nc2ccccc12 | > 64 | > 64 | –
CCOc1c(Cl)cc(Cl)cc1CNCCCNc1cc(O)c2ccccc2n1 | < 0.06 | 0.13 (≈ 0.309 µM) | MIC90 [3]: < 0.016 µg/mL; MIC90 [4]: 2 µg/mL (≈ 4.76 µM); MIC90 [5]: 2 µg/mL (≈ 4.76 µM); MIC90 [6]: 0.06 µg/mL (≈ 0.143 µM)
O=c1cc(NCCCNC2CCOc3c(Br)cc(Br)cc32)[nH]c2ccccc12 (stereo not given) | < 0.06 | < 0.06 | –
CNc1c(Br)cc(Br)cc1CNCCCNc1cc(O)c2ccccc2n1 | 0.13 (≈ 0.263 µM) | 0.5 (≈ 1.01 µM) | –
C=CCc1cc(I)cc(CNCCCNc2cc(O)c3ccccc3n2)c1OCC | 1 (≈ 1.93 µM) | 0.13 (≈ 0.251 µM) | –
CCOc1c(I)cc(CO)cc1CNCCCNc1cc(O)c2ccccc2n1 | > 64 | > 64 | –
CCOc1c(I)cc(C)cc1CNCCCNc1cc(O)c2ccccc2n1 | 0.5 (≈ 1.02 µM) | 2 (≈ 4.07 µM) | –
O=c1cc(NCCCNCc2ccc(Cl)c(Cl)c2)[nH]c2ccccc12 | 2 (≈ 5.32 µM) | 4 (≈ 10.6 µM) | –
Oc1cc(NCCCNCc2cc(Cl)cc(Cl)c2Cl)nc2ccccc12 | – | 0.25 (≈ 0.609 µM) | MIC [7]: < 0.06 µg/mL
Oc1cc(NCCCNC2CCNc3c(Br)cc(Cl)cc32)nc2ccccc12 (stereo not given) | < 0.06 | < 0.06 | MIC90 [3]: < 0.016 µg/mL; MIC90 [4]: 1 µg/mL (≈ 2.17 µM); MIC90 [5]: 1 µg/mL (≈ 2.17 µM); MIC90 [6]: 0.06 µg/mL (≈ 0.13 µM)
CCOc1c(CO)cc(I)cc1CNCCCNc1cc(O)c2ccccc2n1 | 32 (≈ 63.1 µM) | 32 (≈ 63.1 µM) | –
Oc1cc(NCCCOCc2ccc(Cl)c(Cl)c2)nc2ccccc12 | > 64 | > 64 | –
Oc1cc(NCCCNC2CCc3c(Cl)cc(Cl)cc32)nc2ccccc12 (stereo not given) | < 0.06 | 0.25 (≈ 0.621 µM) | –
Oc1cc(NCCCNC2CCOc3c(Cl)cc(I)cc32)nc2ccccc12 (stereo not given) | < 0.06 | 0.13 (≈ 0.255 µM) | –

SMILES | MIC [1] [µg/mL] | MIC [2] [µg/mL] | also measured
O=C(NCCCNc1cc(O)c2ccccc2n1)c1ccc(Cl)c(Cl)c1 | > 64 | > 64 | –
CCOc1c(I)cc(Br)cc1CNCCCNc1cc(O)c2ccccc2n1 | < 0.06 | < 0.06 | –
CCOc1c(CNCCCNc2cc(=O)c3ccccc3[nH]2)cc(I)cc1C(C)(C)C | 8 (≈ 15 µM) | 32 (≈ 60 µM) | –
CCOc1c(Br)cc(I)cc1CNCCCNc1cc(O)c2ccccc2n1 | < 0.06 | < 0.06 | –
CCOc1c(Br)cc(S(C)(=O)=O)cc1CNCCCNc1cc(O)c2ccccc2n1 | 8 (≈ 15.7 µM) | > 64 | –
CCOc1c(CNCCCNc2cc(O)c3ccccc3n2)cc(Br)cc1SC | 1 (≈ 2.1 µM) | 0.5 (≈ 1.05 µM) | –
CC(C)Oc1c(Cl)cc(Cl)cc1CNCCCNc1cc(O)c2ccccc2n1 | – | 2 (≈ 4.6 µM) | MIC [7]: 0.5 µg/mL (≈ 1.15 µM)
Oc1cc(NCCCNCc2cc(Br)cc(Br)c2)nc2ccccc12 | < 0.06 | 0.25 (≈ 0.537 µM) | –
CCOc1c(Br)cc(Br)cc1CNCCCNc1cc(O)c2ccccc2n1 | < 0.06 | < 0.06 | –
Oc1cc(NCCCNC2CCNc3c(Cl)cc(Br)cc32)nc2ccccc12 (stereo not given) | < 0.06 | < 0.06 | –
CCOc1c(I)cc(I)cc1CNCCCNc1cc(O)c2ccccc2n1 | < 0.06 | < 0.06 | –
CCOc1c(C)cc(Br)cc1CNCCCNc1cc(O)c2ccccc2n1 | < 0.06 | 0.13 (≈ 0.293 µM) | –
CCOc1c(CNCCCNc2cc(O)c3ccccc3n2)cc(I)cc1OC | < 0.06 | 2 (≈ 3.94 µM) | –
CCOc1c(Cl)cc(OC)cc1CNCCCNc1cc(O)c2ccccc2n1 | < 0.06 | 0.25 (≈ 0.601 µM) | –
O=c1cc(NCCCNC2CCOc3c(I)cc(Cl)cc32)[nH]c2ccccc12 (stereo not given) | < 0.06 | < 0.06 | MIC90 [4]: 0.25 µg/mL (≈ 0.49 µM); MIC90 [5]: 0.25 µg/mL (≈ 0.49 µM)
CCOc1c(Br)cc([S+](C)[O-])cc1CNCCCNc1cc(O)c2ccccc2n1 (stereo not given) | 2 (≈ 4.06 µM) | 4 (≈ 8.12 µM) | –
Nc1c(Br)cc(Br)cc1CNCCCNc1cc(O)c2ccccc2n1 | < 0.06 | 0.13 (≈ 0.271 µM) | –
CCOc1c(I)cc(OC)cc1CNCCCNc1cc(O)c2ccccc2n1 | 0.13 (≈ 0.256 µM) | 0.5 (≈ 0.985 µM) | –
CCOC(=O)c1cc(I)cc(CNCCCNc2cc(O)c3ccccc3n2)c1OCC | 8 (≈ 14.6 µM) | 32 (≈ 58.2 µM) | –
CCOc1c(C)cc(C#N)cc1CNCCCNc1cc(O)c2ccccc2n1 | 4 (≈ 10.2 µM) | 8 (≈ 20.5 µM) | –
Oc1cc(NCCCNCc2cccc(Cl)c2Cl)nc2ccccc12 | – | 8 (≈ 21.3 µM) | MIC [7]: 2 µg/mL (≈ 5.32 µM)
